Assay results reported in ChEMBL document CHEMBL1201862, “PubChem BioAssay data set” (2004).
Where “and” joins values, the source holds several entries; their conditions need not be identical. Equal entries are not always repeated.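 Values below derive from 48-hour exposures of cells grown in 96-well plates, with endpoints linearly interpolated between the two concentrations bracketing the appropriate inhibition level. At the GI50, growth is halved.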 Calls of active or inactive are those of the source. No stated cut-off is given here; in the data, active = GI50 up to about 1.1 µM and inactive = higher.

Assays:
Test in all cases: NCI anticancer screen, dose series, 48 h
[1] = test system: A498
[2] = test system: M14
[3] = test system: SW-620
[4] = test system: RXF 393
[5] = test system: K562
[6] = test system: SK-MEL-2
[7] = test system: NCI-H460
[8] = test system: COLO 205
[9] = test system: NCI-H23
[10] = test system: Malme-3M
[11] = test system: EKVX
[12] = test system: HT-29
[13] = test system: MDA-MB-231
[14] = test system: IGROV-1
[15] = test system: Hs-578T
[16] = test system: SK-OV-3
[17] = test system: MDA-MB-435
[18] = test system: NCI-H226
[19] = test system: UACC-257

| Structure (SMILES) | GI50 [1] | GI50 [2] | GI50 [3] | GI50 [4] | GI50 [5] | GI50 [6] | GI50 [7] | GI50 [8] | GI50 [9] | GI50 [10] | GI50 [11] | GI50 [12] | GI50 [13] | GI50 [14] | GI50 [15] | GI50 [16] | GI50 [17] | GI50 [18] | GI50 [19] |
| --- | --- | --- | --- | --- | --- | --- | --- | --- | --- | --- | --- | --- | --- | --- | --- | --- | --- | --- | --- |
| N=C(N)N/N=C/c1c(-c2ccc([N+](=O)[O-])cc2)nc2sccn12 | 1.73 µM (inactive) | 1.91 µM (inactive) | 0.706 µM (active) | 2.55 µM (inactive) | 0.973 µM (active) | 1.76 µM (inactive) | 2 µM (inactive) | 0.676 µM (active) | 1.71 µM (inactive) | 1.95 µM (inactive) | 1.8 µM (inactive) | 1.53 µM (inactive) | 1.68 µM (inactive) | 8.63 µM (inactive) | 1.89 µM (inactive) | 1.64 µM (inactive) | 1.5 µM (inactive) | 1.75 µM (inactive) | 1.93 µM (inactive) |
| COC(=O)Cc1c([C@H]2[C@H](CC(=O)OC)c3ccccc3N2S(=O)(=O)c2ccc(C)cc2)[nH]c2ccccc12 | > 100 µM (inactive) | > 100 µM (inactive) | > 100 µM (inactive) | > 100 µM (inactive) | 31.4 µM (inactive) | > 100 µM (inactive) | > 100 µM (inactive) | > 100 µM (inactive) | > 100 µM (inactive) | 0.208 µM (active) |  | > 100 µM (inactive) | > 100 µM (inactive) | 3.13 µM (inactive) | > 100 µM (inactive) | > 100 µM (inactive) | > 100 µM (inactive) | > 100 µM (inactive) | > 100 µM (inactive) |
| COC(=O)C1OC(O[C@H]2CC[C@]3(C)[C@H]4CC=C5[C@@H]6CC(C)(C)CC[C@]6(C(=O)OC6OCC(O)C(O)C6OC6OC(C)C(OC7OCC(O)C(O)C7O)C(O)C6O)[C@H](O)C[C@@]5(C)[C@]4(C)CC[C@H]3C2(C)C)C(O)C(O)C1O (some centres undefined) | 1.75 µM (inactive) and 1.86 µM (inactive) | 2.75 µM (inactive) and 3.91 µM (inactive) | 13.2 µM (inactive) and 11.7 µM (inactive) | 11.3 µM (inactive) and 14.9 µM (inactive) | 6.28 µM (inactive) and 10.8 µM (inactive) | 2.7 µM (inactive) and 2.9 µM (inactive) |  | 1.66 µM (inactive) and 1.83 µM (inactive) | 2.14 µM (inactive) and 2.24 µM (inactive) |  | 3.27 µM (inactive) and 2.82 µM (inactive) | 2.77 µM (inactive) and 3.73 µM (inactive) | 1.91 µM (inactive) and 2.36 µM (inactive) | 15.8 µM (inactive) and 11.7 µM (inactive) | 16.4 µM (inactive) and 16.3 µM (inactive) | 11.4 µM (inactive) and 13.4 µM (inactive) | 2.32 µM (inactive) and 1.95 µM (inactive) | 7.13 µM (inactive) and 3.94 µM (inactive) | 2.9 µM (inactive) and 5.79 µM (inactive) |
| Cc1nc(N(C(C)C)C(C)C)c(C(C)C)o1 | > 100 µM (inactive) | > 100 µM (inactive) | > 100 µM (inactive) | > 100 µM (inactive) | > 100 µM (inactive) |  | > 100 µM (inactive) | > 100 µM (inactive) | > 100 µM (inactive) | > 100 µM (inactive) | > 100 µM (inactive) | > 100 µM (inactive) | > 100 µM (inactive) | > 100 µM (inactive) | > 100 µM (inactive) | > 100 µM (inactive) | > 100 µM (inactive) | > 100 µM (inactive) | > 100 µM (inactive) |
| CCCCCCCC1c2cc3nc(cc4[nH]c(cc5nc(cc([nH]2)[C@@]1(C)CC(=O)N(C)C)C(C)=C5CCC(=O)O)c(CCC(=O)O)c4C)C=C3C (some centres undefined) | 33.3 µM (inactive) | 14.7 µM (inactive) | 42.8 µM (inactive) | 17.8 µM (inactive) | 21.8 µM (inactive) | 18.8 µM (inactive) | 20.8 µM (inactive) | 16.7 µM (inactive) | 18.5 µM (inactive) | 19.9 µM (inactive) | 55.8 µM (inactive) | 18.6 µM (inactive) | 17 µM (inactive) | 21 µM (inactive) | 18.7 µM (inactive) | 40.6 µM (inactive) | 30.2 µM (inactive) |  | 17.3 µM (inactive) |
| COC(=O)C1=NN2c3ccccc3CN([C@@H](C)c3ccccc3)C(=O)[C@@H]2[C@H]1c1ccccc1 | > 100 µM (inactive) | > 100 µM (inactive) | > 100 µM (inactive) | > 100 µM (inactive) | 13.3 µM (inactive) | > 100 µM (inactive) | > 100 µM (inactive) | > 100 µM (inactive) | > 100 µM (inactive) | > 100 µM (inactive) | > 100 µM (inactive) | > 100 µM (inactive) | > 100 µM (inactive) |  | > 100 µM (inactive) | > 100 µM (inactive) | > 100 µM (inactive) | > 100 µM (inactive) | > 100 µM (inactive) |
| O=C1Nc2ccccc2/C1=N/Nc1c(F)c(F)c(F)c(F)c1F | 66.8 µM (inactive) | > 100 µM (inactive) | 43.9 µM (inactive) | 53.8 µM (inactive) | 8.63 µM (inactive) | > 100 µM (inactive) | 93.3 µM (inactive) | 13.9 µM (inactive) | 87.7 µM (inactive) |  | 35 µM (inactive) | 42.8 µM (inactive) | > 100 µM (inactive) | 20.5 µM (inactive) | 86.7 µM (inactive) | > 100 µM (inactive) | > 100 µM (inactive) | 53 µM (inactive) | 27.2 µM (inactive) |
| CCOC(=O)[C@H](C)OC(=O)[C@@](C)(NC(=O)c1ccccc1C(=O)OC)[C@@H]1NC=C(C(=O)OC)CS1 | > 100 µM (inactive) | > 100 µM (inactive) | > 100 µM (inactive) | 97.9 µM (inactive) | 36.5 µM (inactive) | > 100 µM (inactive) | 80.4 µM (inactive) | > 100 µM (inactive) | > 100 µM (inactive) | 97.3 µM (inactive) | > 100 µM (inactive) | > 100 µM (inactive) | > 100 µM (inactive) | 80 µM (inactive) | > 100 µM (inactive) | > 100 µM (inactive) | 27.6 µM (inactive) | > 100 µM (inactive) | > 100 µM (inactive) |
| CC1OC(OCC2OC(Oc3ccc(C4CC(=O)c5c(O)cc(O)cc5O4)cc3O)C(O)C(O)C2O)C(O)C(O)C1O (centres undefined) | > 100 µM (inactive) | > 100 µM (inactive) | > 100 µM (inactive) | > 100 µM (inactive) | > 100 µM (inactive) | > 100 µM (inactive) | > 100 µM (inactive) | > 100 µM (inactive) | > 100 µM (inactive) | > 100 µM (inactive) | > 100 µM (inactive) | > 100 µM (inactive) | > 100 µM (inactive) | > 100 µM (inactive) | > 100 µM (inactive) | > 100 µM (inactive) | > 100 µM (inactive) | > 100 µM (inactive) | > 100 µM (inactive) |
| CN(C)c1ccc(C(=NN)c2ccc(N(C)C)cc2)cc1 | 4.93 µM (inactive) | 0.504 µM (active) | 0.462 µM (active) | 1.98 µM (inactive) | 0.229 µM (active) | 0.121 µM (active) | 0.337 µM (active) | 0.344 µM (active) | 1.46 µM (inactive) | 53.3 µM (inactive) | 4.74 µM (inactive) | 0.443 µM (active) | 0.526 µM (active) | 0.746 µM (active) | 2.33 µM (inactive) | 1.84 µM (inactive) | 0.0416 µM (active) | 3.52 µM (inactive) | 0.203 µM (active) |
| O=C1NC2(CCCCC2)N=C2C(Cl)CCCC12Cl (centres undefined) | > 100 µM (inactive) | > 100 µM (inactive) | > 100 µM (inactive) | > 100 µM (inactive) | > 100 µM (inactive) | > 100 µM (inactive) | > 100 µM (inactive) | > 100 µM (inactive) | > 100 µM (inactive) | > 100 µM (inactive) | > 100 µM (inactive) | > 100 µM (inactive) | > 100 µM (inactive) | > 100 µM (inactive) | > 100 µM (inactive) | > 100 µM (inactive) | > 100 µM (inactive) | > 100 µM (inactive) |  |
| O=C(NCCCN(CCCCN(CCCNC(=O)C(F)(F)F)CCCc1ccccc1)CCCc1ccccc1)C(F)(F)F | 2.21 µM (inactive) | 1.76 µM (inactive) | 1.98 µM (inactive) | 1.3 µM (inactive) | 2.87 µM (inactive) |  | 1.87 µM (inactive) | 1.56 µM (inactive) | 12.7 µM (inactive) | 1.75 µM (inactive) | 1.68 µM (inactive) | 1.55 µM (inactive) | 1.63 µM (inactive) | 1.83 µM (inactive) | 2.02 µM (inactive) | 2.49 µM (inactive) | 1.76 µM (inactive) | 10.4 µM (inactive) | 1.71 µM (inactive) |
| Clc1ccc(COC(Cn2ccnc2)c2ccc(Cl)cc2Cl)cc1 (centres undefined) [ECONAZOLE] | 14.2 µM (inactive) | 15 µM (inactive) | 12.1 µM (inactive) | 14.9 µM (inactive) | 4.76 µM (inactive) | 14.8 µM (inactive) | 11.9 µM (inactive) | 11.5 µM (inactive) | 13.1 µM (inactive) | 12.3 µM (inactive) | 11.8 µM (inactive) | 8.69 µM (inactive) | 13.3 µM (inactive) | 11.9 µM (inactive) | 17 µM (inactive) | 13.8 µM (inactive) | 11.8 µM (inactive) |  | 13.1 µM (inactive) |
| O=c1ccc2ccc(O)cc2o1 [UMBELLIFERONE] | > 100 µM (inactive) | > 100 µM (inactive) | > 100 µM (inactive) | > 100 µM (inactive) |  | > 100 µM (inactive) |  | > 100 µM (inactive) | > 100 µM (inactive) | > 100 µM (inactive) | > 100 µM (inactive) | > 100 µM (inactive) | > 100 µM (inactive) | > 100 µM (inactive) | > 100 µM (inactive) | > 100 µM (inactive) | > 100 µM (inactive) | > 100 µM (inactive) | > 100 µM (inactive) |
